For 44 compounds, IC50, EC50 and Activity results are on record in ChEMBL document CHEMBL1140535, “Synthesis and evaluation of substituted benzoisoquinolinones as potent inhibitors of Chk1 kinase” (Bioorg Med Chem Lett, 2007).

Assay [1] concerns the target T1, Serine/threonine-protein kinase Chk1 (Homo sapiens, UniProt O14757).
T1 sequence (O14757 whole entry): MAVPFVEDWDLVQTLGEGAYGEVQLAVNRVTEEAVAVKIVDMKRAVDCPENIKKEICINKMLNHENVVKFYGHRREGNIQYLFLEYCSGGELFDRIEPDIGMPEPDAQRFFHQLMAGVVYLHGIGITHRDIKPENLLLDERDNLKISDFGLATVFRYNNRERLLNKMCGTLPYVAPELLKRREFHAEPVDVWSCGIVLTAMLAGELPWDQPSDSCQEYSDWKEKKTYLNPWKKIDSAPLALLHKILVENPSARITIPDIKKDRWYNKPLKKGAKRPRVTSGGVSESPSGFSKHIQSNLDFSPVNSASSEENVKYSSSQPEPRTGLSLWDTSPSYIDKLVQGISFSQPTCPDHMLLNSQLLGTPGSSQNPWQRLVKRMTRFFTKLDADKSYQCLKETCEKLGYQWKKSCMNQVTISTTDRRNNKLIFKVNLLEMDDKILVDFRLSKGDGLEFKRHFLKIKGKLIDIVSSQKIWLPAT
Description: Inhibition of human Chk1 expressed in baculovirus by time-resolved fluorescence assay.

The test system of another assay is NCI-H1299. The assay is described as follows: Inhibition of camptothecin induced mitotic arrest in human NCI-H1299 cells after 18 hrs. Type of assay: functional, cell-based. Particulars: NCI-H1299, 18 h.
The subject of assay [2] is HT-29. The assay is described as follows: Effect on apoptosis in HT29 cells assessed as increase in camptothecin induced caspase 3 activation after 24 hrs. Type of assay: functional, cell-based. Particulars: Homo sapiens.
Assay [3] deals with HT-29. Description: Effect on apoptosis in HT29 cells assessed as increase in caspase 3 activation after 24 hrs. Type of assay: functional, cell-based. Particulars: Homo sapiens.

SMILES strings stand for the structures. pEC50, pIC50: −log10 of the molar value. Calls of active or inactive are those of the source. The calls are words filed in the database; no cut-off is given here. A value given as a limit tells only on which side of the number the result lay.

For `O=c1[nH]ccc2c3[nH]c(-c4cccnc4)nc3c3ccc(F)cc3c12`, the pIC50 in assay [1] was 6.96.
In turn, `NCCCc1cc2c(-c3ccccc3Cl)c[nH]c(=O)c2c2cc(-c3cn[nH]c3)ccc12` had a pEC50 in the assay with NCI-H1299 of 6.89. In assay [1], this compound had a pIC50 of 9.10.
Consider `NCCCc1cc2c(-c3ccccc3O)c[nH]c(=O)c2c2cc(-c3cn[nH]c3)ccc12`, for which the pEC50 in the assay on NCI-H1299 was 6.64. Moreover, the pIC50 in assay [1] is 8.70.
`O=c1[nH]ccc2cc(CCO)c3ccc(Br)cc3c12`: the pIC50 in assay [1] was 6.11.
Compound `NCCCc1cc2c(-c3ccc(Cl)cc3)c[nH]c(=O)c2c2cc(-c3cn[nH]c3)ccc12` had a pEC50 in the assay on NCI-H1299 of 6.49. Besides, the pIC50 in assay [1] is 8.92.
Regarding `N#Cc1cc2cc[nH]c(=O)c2c2cc(Br)ccc12`, the pIC50 in assay [1] was 6.40.
Consider `N#CCCc1cc2cc[nH]c(=O)c2c2cc(Cl)ccc12`, for which the pIC50 in assay [1] is 6.29.
In the case of `C=Cc1c[nH]c(=O)c2c1cc(CCCN)c1ccc(-c3cn[nH]c3)cc12`, the pEC50 in the assay with NCI-H1299 is 6.68. In assay [1], this compound gave a pIC50 of 8.44.
With `NCCCc1cc2cc[nH]c(=O)c2c2cc(C(N)=O)ccc12`, in the assay on NCI-H1299, the pEC50 was under 5.00. The pIC50 in assay [1] was 7.96.
For `NCCCc1cc2c(-c3cccc(F)c3)c[nH]c(=O)c2c2cc(-c3cn[nH]c3)ccc12`, in the assay on NCI-H1299, the pEC50 was 6.52. In assay [1], this compound showed a pIC50 of 8.43.
In the assay on NCI-H1299, `N#Cc1ccc2c(CCCN)cc3cc[nH]c(=O)c3c2c1` showed a pEC50 of 5.66. In assay [1], this compound gave a pIC50 of 7.60.
`O=c1[nH]ccc2c3[nH]c(-c4ccccc4)nc3c3ccc(F)cc3c12` showed a pIC50 in assay [1] of 5.97.
As for `O=c1[nH]ccc2c3[nH]cnc3c3ccc(F)cc3c12`, the pIC50 in assay [1] was 6.21.
`NCCCc1cc2c(Br)c[nH]c(=O)c2c2cc(-c3cn[nH]c3)ccc12` gave a negative logarithm of the EC50 (pEC50) in the assay with NCI-H1299 of 6.85. Also, in assay [1], the pIC50 is 8.64.
`CNCCc1cc2cc[nH]c(=O)c2c2cc(Br)ccc12` had a pIC50 in assay [1] of 7.36.
In turn, `NCCCc1cc2c(-c3ccccc3F)c[nH]c(=O)c2c2cc(-c3cn[nH]c3)ccc12` gave a negative logarithm of the EC50 (pEC50) in the assay on NCI-H1299 of 6.43. For the same compound, the negative-log IC50 (pIC50) in assay [1] is 8.59.
On to `NCCc1cc2cc[nH]c(=O)c2c2cc(Cl)ccc12`, for which, in assay [1], the pIC50 is 7.96.
As to `NCCCc1cc2cc[nH]c(=O)c2c2cc(Br)ccc12`, the pEC50 in the assay on NCI-H1299 is 6.51. Moreover, the pIC50 in assay [1] is 7.77.
Consider `NCCc1cc2cc[nH]c(=O)c2c2cc(-c3ccc[nH]3)ccc12`, for which, in the assay on NCI-H1299, the pEC50 is 7.85. Also, the pIC50 in assay [1] was 9.30.
Compound `NCCc1cc2cc[nH]c(=O)c2c2cc(-c3ccn[nH]3)ccc12` gave a pEC50 with NCI-H1299 of 7.00. Moreover, in assay [1], the pIC50 was 8.60.
`O=c1[nH]ccc2cc(CO)c3ccc(Br)cc3c12`: in assay [1], the pIC50 is 6.36.
`NCCCc1cc2cc[nH]c(=O)c2c2cc(-c3cn[nH]c3)ccc12` showed a pEC50 in the assay on NCI-H1299 of 7.19. The compound also showed a pIC50 in assay [1] of 8.46.
As to `NCCCc1cc2cc[nH]c(=O)c2c2cc(-c3ccn[nH]3)ccc12`, the pEC50 in the assay with NCI-H1299 is 6.82. Besides, the pIC50 in assay [1] is 8.37.
Regarding `NCCc1cc2cc[nH]c(=O)c2c2cc(-c3cn[nH]c3)ccc12`, in the assay on HT-29 [2], the result was Active. In the assay on NCI-H1299, the pEC50 was 7.10. The outcome in the assay with HT-29 [3] was inactive. Moreover, in assay [1], the pIC50 is 8.52.
Take `NCCCc1cc2c(-c3ccc(F)cc3)c[nH]c(=O)c2c2cc(-c3cn[nH]c3)ccc12`: in the assay with NCI-H1299, the pEC50 was 6.43. In assay [1], this compound gave a pIC50 of 8.46.
For `NCCCc1cc2c(-c3ccc(Cl)cc3Cl)c[nH]c(=O)c2c2cc(-c3cn[nH]c3)ccc12`, the pEC50 in the assay with NCI-H1299 was 6.57. In addition, the pIC50 in assay [1] is 8.92.
The compound `O=c1[nH]ccc2ccc3ccc(Cl)cc3c12` had a pIC50 in assay [1] of 6.24.
As to `CN(C)CCNC(=O)c1ccc2c(CCCN)cc3cc[nH]c(=O)c3c2c1`, the pEC50 with NCI-H1299 was under 5.00. The same compound showed a pIC50 in assay [1] of 8.70.
On the same counts, the results for `NCCCc1cc2c(-c3ccc(O)cc3)c[nH]c(=O)c2c2cc(-c3cn[nH]c3)ccc12` are 7.33 and 9.52.
As to `NCCCc1cc2cc[nH]c(=O)c2c2cc(Cl)ccc12`, in the assay with NCI-H1299, the pEC50 was 6.64. This compound also had a pIC50 in assay [1] of 7.92.
For `NCCc1cc2cc[nH]c(=O)c2c2cc(-c3ccc(CN4CCOCC4)cc3)ccc12`, in the assay with NCI-H1299, the pEC50 was 6.89. In assay [1], this compound showed a pIC50 of 9.22.
Take `NCCCc1cc2cc[nH]c(=O)c2c2cc(-c3ccc[nH]3)ccc12`: in the assay on NCI-H1299, the pEC50 was 7.36. In addition, the pIC50 in assay [1] is 8.62.
Turning to `N#CCCc1cc2cc[nH]c(=O)c2c2cc(Br)ccc12`, the pIC50 in assay [1] is 6.38.
Consider `COC(=O)c1cc2cc[nH]c(=O)c2c2cc(Cl)ccc12`, for which, in assay [1], the pIC50 was 6.44.
`COC(=O)c1cc2cc[nH]c(=O)c2c2cc(Br)ccc12` gave a pIC50 in assay [1] of 6.52.
For the compound `N#Cc1cc2cc[nH]c(=O)c2c2cc(Cl)ccc12`, the pIC50 in assay [1] was 5.97.
`NCCCc1cc2cc[nH]c(=O)c2c2ccccc12`: the pIC50 in assay [1] is 7.01.
Compound `Cn1cc(-c2ccc3c(CCCN)cc4cc[nH]c(=O)c4c3c2)cn1` showed a pEC50 with NCI-H1299 of 6.02. This compound also had a pIC50 in assay [1] of 8.04.
As for `CN(C)CCc1cc2cc[nH]c(=O)c2c2cc(Br)ccc12`, the pIC50 in assay [1] is 6.89.
`NCCCc1cc2c(-c3cccc(Cl)c3)c[nH]c(=O)c2c2cc(-c3cn[nH]c3)ccc12` had a pEC50 in the assay on NCI-H1299 of 5.98. Further, the pIC50 in assay [1] is 7.94.
With `NCCCc1cc2cc[nH]c(=O)c2c2cc(-c3ccc(CN)cc3)ccc12`, the pEC50 in the assay on NCI-H1299 was 5.96. In assay [1], the pIC50 is 8.19.
The corresponding values for `NCCCc1cc2c(-c3cccc(O)c3)c[nH]c(=O)c2c2cc(-c3cn[nH]c3)ccc12` are 7.17 and 9.00.
`NCCCc1cc2c(-c3ccccc3)c[nH]c(=O)c2c2cc(-c3cn[nH]c3)ccc12` gave a pEC50 with NCI-H1299 of 6.85. Moreover, in assay [1], the pIC50 was 8.70.
The compound `NCCc1cc2cc[nH]c(=O)c2c2cc(Br)ccc12` showed a pIC50 in assay [1] of 8.52.

The term pIC50 denotes the IC50 on a negative log10 scale, so that one unit is a factor of ten. The low end stands for a high IC50, the high end for a low IC50. As a reminder, the pEC50 is the EC50 on a negative log10 scale, so that one unit is a factor of ten. Higher therefore signals a low EC50.
